Patent US20060276385A1, “Anti-inflammatory agents and methods of their use” (priority 2003, published 2006)

Experiments:
MAE-p47−/− cells = assay: Monocyte adhesion to p47phox-null endothelial cells, with or without p47phox transfection; type: cell-based, mouse; conditions: 18 hrs
Procedure: (§1) Endothelial cells: Mouse aortic endothelial cells (MAEC) were cultured and used at passages 4-8 as described (Cai, H., et al. (2002) J Bio Chem 107, 48311-48317). Human aortic endothelial cells (HAEC) purchased from Clonetics were cultured using EGM-2 bullet kit (Clonetics) and used at passages 4-8. Alternatively, endothelial cells obtained from the thoracic aortas of C57/BL6 control (MAE-wt) and p47^phox-null mice (MAE-p47^−/−) were isolated and cultured as described previously (Hwang, J. et al. (2003) J Biol Chem 278:47291-8), and used between passages 4-10.
(§2) Monocyte Adhesion: Monocyte binding was determined under no-flow conditions using THP-1 monocytes (ATCC) by the method described by Chappel et al (Chappell, D. C., et al. (1998) Circ Res 82, 532-539). Briefly, THP-1 cells (5×10^5 cells/ml) were labeled with a fluorescent dye 2′,7′-bis(carboxyethyl)-5(6)-carboxyfluorescein-AM (BCECF, Molecular Probes) (1 mg/ml) in serum-free RPMI medium for 45 min at 37° C. Following exposure to shear stress or BMP treatments in the presence or absence of noggin or vehicle, the endothelial cells were washed in RPMI medium before adding BCECF-loaded THP-1 cells (1:1 ratio). After a 30 min incubation at 37° C. under no-flow conditions, unbound monocytes were removed by washing the endothelial dishes 5 times with Hank's PBS. Bound monocytes were quantified by either counting the cells under a fluorescent microscope or by measuring the fluorescent intensity of cell lysates by fluorescence spectrophotometry using a plate reader. […] Some studies were performed with MAEC pretreated with 5 μg/ml of mouse-ICAM1 antibody (YN1, Southern Biolechonology) (Kevil, C. G., et al. (2001) Am J Physiol Cell Physiol 281, C1442-1447).
Transfection of p47phox: In some studies MAE-p47^−/− cells were trasnfected withp47phox expression vector or an empty vector as described (Hwang, J. et al. (2003) J Biol Chem278-47291-8).
Next, monocyte adhesion was determined in these cells. […] After 18 hrs, cells were washed and monocyte binding was determined as described in FIG. 7. […]

E-selectin = E-selectin surface expression by FACS analysis in HAEC; type: cell-based, human; conditions: TNF-α 100 U/ml for 2 hr as positive control
Procedure: Fluorescence activated cytometry sorting (FACS) analysis: Treated cells were dissociated into single cell suspensions using 0.25% trypsin-EDTA and resuspended in a FACS buffer (Hank's buffered solution containing 5% FBS). Aliquots of cell suspensions were incubated with ICAM-1 antibody (R&D Systems) for 20 min on ice, washed twice with FACS buffer, and incubated with secondary antibody (fluorescein-5-isothiocyanate- or phycoerytherin-conjugated, Chemicon) for 20 min on ice in the dark. Then samples were washed again, fixed in 1% paraformaldehyde and analyzed by FACS (Calibur, Becton-Dickinson) using CellQuest software. The fluorescence intensity of ICAM-1 and forward cell scattering of 30,000 cells were measured and the geometric means calculated from histograms were shown. […] In these experiments, ICAM-1 expression was measured in the red phycoerytherin channel, while the green channel was used to monitor the […] expression-GFP expression was determined by FACS analysis and fluorescence microscopy (20-30% transfection efficiency). […]
HAEC treated with OS, BMP4 or static condition were analyzed by FACS using antibodies specific to VCAM-1 (C) and E-selectin (D) as described in panel A using TNFa (1OOU/ml, for 2 hr) as a positive control.

MAEC = assay: Monocyte adhesion: THP-1 monocytes bound to mouse aortic endothelial cells; type: cell-based
Procedure: as §1
Shear stress studies: Confluent endothelial monolayers grown in 100 mm tissue culture dishes were exposed to an arterial level of uni-directional LS (15 dyn/cm^2) in the growth medium by rotating a Teflon cone (0.5° cone angle) as described previously. To mimic unstable shear conditions in vivo, endothelial cells were exposed to OS with directional changes of flow at 1 Hz cycle (±5 dyn/cm^2) by rotating the cone back-and-forth using a stepping motor (Servo Motor) and a computer program (DC Motor Company, Atlanta, Ga.). In some studies, 5 dyn/cm^2 unidirectional LS was used for comparison to OS (±5 dyn/cm^2).
as §2
In FIG. 7B, confluent MAE-wt cells were pre-incubated with cell-permeable PEG-catalase (Catalase, 100 U/ml for 18 hrs) or Tiron (10 μmol/L for 1 hr). Cells were then incubated with 20 ng/ml BMP4 or vehicle for additional 18 hrs. The treated cells in 7A and 7B were washed, and fluorescently-labeled THP-1 monocytes were added. Unbound THP-1 cells were washed after 30 min, and bound monocytes were counted with a fluorescence microscope using a 10× objective (5-10 different fields per dish). […] As a positive control, monocyte binding was determined using MAE-wt treated with TNF-α(100 U/ml for 2hrs).

BMP4
increase in monocyte adhesion above the control (MAE-p47−/− cells; MAE-p47−/− cells transfected with p47phox (rescued), BMP4 20 ng/ml or TNF-α 100 U/ml): 4- to 5 fold | monocyte adhesion response (MAE-p47−/− cells; MAE-p47−/− cells, BMP4 20 ng/ml): failed to stimulate monocyte adhesion | effect on surface expression of E-selectin (E-selectin): neither OS nor BMP4 had any effect | monocyte adhesion above vehicle control (MAEC; MAE-wt cells, BMP4 20 ng/ml, 18 hrs): 5 to 6 fold | effect on LS inhibition of monocyte adhesion (MAEC; MAEC sheared (LS) 24 hrs in medium supplemented with BMP4): inhibitory effect of LS on monocyte adhesion was lost | monocyte binding, maximum activation over control (MAEC; MAEC treated with increasing concentrations of BMP4 for 24 hr (overnight)): 4 to 7 fold | BMP4 concentration inducing maximum effect on monocyte adhesion (MAEC; MAEC, 24 hr): 50 ng/mL | lowest BMP4 concentration inducing a statistically significant increase in monocyte adhesion (MAEC; MAEC, 24 hr): 0.1 ng/mL
